Test results: ChEMBL document CHEMBL3507680, “University of Dundee, Gates Library screen for HepG2 cell viability”

Experiment: Human HepG2 cell viability assay in 384 well format
Assay type: toxicity, cell-based
Set-up: dose 125 nL, time 70.5 hour; cytotoxicity at 70.5 h: concentration not given beside the values
Settings: HepG2 cells, read-out: Inhibition

| SMILES | cytotoxicity at 70.5 h [%] |
| --- | --- |
| Cc1cnn(C(C)C2CC2)c1NC(=O)c1ncccc1O (stereo unspecified) | 9.8 |
| CCOC(=O)N1CCC(Nc2cc(CC)nc3c(C)c(C)nn23)CC1 | -4.43 |
| CNc1ncccc1C(=O)N1CCCC2(C1)C(=O)N(C)c1ccccc12 (stereo unspecified) | -7.64 |
| O=C(O)c1cccnc1CN1CCCCC1CCc1cccc(O)c1 (stereo unspecified) | 9.13 |
| COCCN(Cc1cccc(O)c1)Cc1ccccc1F | 1.04 |
| Cc1nc(NC(=O)N(C)Cc2ccsc2)nn1C | -7.49 |
| CCC1CN(C(=O)c2ccccc2C(C)=O)CCN1C(C)C (stereo unspecified) | -4.04 |
| CN(Cc1ccc(CCC(C)(C)O)cc1)Cc1cccc(O)c1 | -8.03 |
| COc1cc(N(C)CCC(O)c2ccccc2)ncn1 (stereo unspecified) | -3.53 |
| CCCNC(=O)C(C)Oc1ccccc1 (stereo unspecified) | -5.34 |
| Cc1cnc(C(=O)N[C@H]2CN(CCS(C)(=O)=O)C[C@@H]2C2CC2)cn1 | 12.4 |
| COc1ccc2c(c1)OCC(CNC(=O)CCc1c(C)n[nH]c1C)C2 (stereo unspecified) | -1.4 |
| C[C@@H]1CN(c2nc3c(cc2C(N)=O)CCC3)C[C@]1(C)O | -15 |
| CN(C)CCC(Nc1nc(N)nc2c1CCNCC2)c1ccccc1 (stereo unspecified) | -8.45 |
| Cc1cc(C)nc(N2CCN(C(=O)c3ccc(C4CCCO4)s3)CC2)n1 (stereo unspecified) | -11.5 |
| Cc1nn(C)c(C)c1CCC(=O)N(C)Cc1ccc2nsnc2c1 | -4.18 |
| Cc1nn(C)c(C)c1-c1c(-c2ccccc2)ncn1[C@H](CO)C(=O)O | -4.59 |
| CN(C)c1nc2c(c(N3CCC4(CCCNC4=O)C3)n1)CCCC2 (stereo unspecified) | 8.69 |
| CCS(=O)(=O)CCNc1nc(C2CCCC2)nc2c1cnn2C | -6.16 |

| SMILES | cytotoxicity at 70.5 h [%] |
| --- | --- |
| COCCCC1(C(=O)O)CCCN(Cc2cc3c(cc2C)OCCO3)C1 (stereo unspecified) | -8.65 |
| c1cc(-c2n[nH]c(CNc3nnc(C4CC4)o3)n2)ccn1 | 0.716 |
| O=C1CC[C@H]2CN(Cc3cccnc3)CC[C@H]2N1CCc1c[nH]cn1 | -1.83 |
| Cc1csc(N2CCCN(C3Cc4ccccc4C3)CC2)n1 | -15.6 |
| Cc1nc(C2CCNCC2)cc(N(C)Cc2cc3cc(F)ccc3[nH]2)n1 | -1.29 |
| COc1ncc(-c2cc(NCCN(C)C)nc3[nH]ccc23)c(OC)n1 | 15.3 |
| Cc1[nH]c2c(F)cccc2c1CC(=O)NCCCc1csc(N)n1 | 5.37 |
| CC(C)c1cc(C2CCN(Cc3cc(F)cc(F)c3)CC2)[nH]n1 | -1.12 |
| COCC(=O)N1C[C@H]2CNC[C@@]2(C(=O)NCc2snnc2C)C1 | -6.27 |
| CC(C)[C@H]1CN(Cc2ccccn2)C[C@@H]1NC(=O)CC1CCC1 | -3.45 |
| CC(C)(O)CCc1ccc(C(=O)N2CCN(CCS(C)(=O)=O)CC2)cc1 | 0.886 |
| COCC(=O)N1CC[C@]2(O)CCN(Cc3ccsc3)C[C@@H]2C1 | -7.01 |
| CCSCCNc1nc2c(s1)c(C)nn2C | -14.5 |
| Cc1ccc2nc(CN(C)Cc3[nH]nc4c3CCC4)[nH]c2c1C | 6.49 |
| Cc1cnc(N)nc1NCCSCc1[nH]cnc1C | -1.94 |
| CN1CCC(Cc2noc(-c3cccc(Oc4ncccn4)c3)n2)CC1 | -2 |
| CCC1(CO)CCN(C(=O)c2cc(COc3ccccc3F)[nH]n2)CC1 | 15.1 |
| CN(CCO)Cc1nnc(C2CCN(C(=O)CN3CCCC3)CC2)n1C | -0.947 |
| Nc1ncccc1CN1C[C@@H](C(=O)O)[C@H](c2cccc(F)c2)C1 | 1.75 |

| SMILES | cytotoxicity at 70.5 h [%] |
| --- | --- |
| N#Cc1cccnc1N1CCN(S(=O)(=O)NCc2ccccc2)CC1 | -18.9 |
| Cc1ccc(-c2ccnc(NCC3(N(C)C)CCOCC3)n2)c(C)n1 | -4 |
| CN(C)CCN1CC2(CCCN(c3ncc(Cl)cc3F)C2)CCC1=O (stereo unspecified) | -5.68 |
| CCCN1CCCC2(CCN(Cc3cncn3C3CCCCC3)C2)C1=O (stereo unspecified) | -7.64 |
| Cc1ccc(NC2(C(=O)NCCCc3c(C)n[nH]c3C)CCCC2)cc1 | -5.19 |
| CC(=O)c1ccc(N2CCC3(CC2)CC(=O)N(C)C3)nc1 | 4.13 |
| Cc1nc(N)nc(C)c1CC(=O)NCc1ccc2nonc2c1 | -9.8 |
| Cc1ncsc1CCN(C)C(=O)CN1CCCCC1=O | 12.5 |
| O=C(CCC(=O)N1CCC(OCc2cccnc2)CC1)c1ccccc1 | -1.13 |
| COc1ccc(C(=O)N2C[C@@H](CN3CCCCC3)[C@@H](CO)C2)cc1Cl | -1.81 |
| CSc1ccc2cc(CN(C)CCO)c(=O)[nH]c2c1 | -16.3 |
| COc1cc(OC)cc(-c2cccc3c2OC(CN)C3)c1 (stereo unspecified) | 24.7 |
| O=C(c1ccccc1)N1CCN(CC2CCOc3ccccc3C2)CC1 (stereo unspecified) | -2.76 |
| CCC(c1nc(C(C)C)nn1-c1ccncc1C)n1cccn1 (stereo unspecified) | -9.34 |
| CN(C)c1ccc(C(=O)N2C[C@@H](CN3CCCCC3)[C@@H](CO)C2)cc1 | -4.9 |
| Cc1cccc(C(C(=O)NCc2csc(-c3ncccn3)n2)N(C)C)c1 (stereo unspecified) | -0.325 |
| O=C1OCCN1Cc1ncnn1Cc1c(F)cccc1Cl | 11.9 |
| Cc1ncc(C(=O)N2CCCN(Cc3ccccc3F)CC2)c(O)n1 | -12.9 |
